Test results reported in PubChem BioAssay (NCI).
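In this assay, cells in 96-well plates receive the compound at five concentrations for 48 hours. Endpoints are linearly interpolated between the surrounding concentrations. The concentration for full growth arrest is given as TGI.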

Key:
Assay in all cases: inhibition of tumour cell growth, NCI panel, 48 h
[1] = test system: MDA-MB-435
[2] = test system: HCT-15 colon
[3] = test system: OVCAR-3 ovarian
[4] = test system: UO-31 renal
[5] = test system: SK-MEL-5 melanoma
[6] = test system: NCI-H226 lung
[7] = test system: OVCAR-8 ovarian
[8] = test system: HCT-116 colon
[9] = test system: SK-MEL-2 melanoma
[10] = test system: SK-MEL-28 melanoma
[11] = test system: LOX IMVI melanoma
[12] = test system: MCF7 breast
[13] = test system: MOLT-4 leukemia
[14] = test system: HCC-2998 colon
[15] = test system: A498 renal
[16] = test system: KM12 colon
[17] = test system: CCRF-CEM leukemia
[18] = test system: HT29 colon
[19] = test system: 786-0 renal
[20] = test system: CAKI-1 renal
[21] = test system: HL-60(TB) leukemia
[22] = test system: HOP-62 NSCLC
[23] = test system: RPMI-8226 leukemia
[24] = test system: U251 CNS
[25] = test system: HOP-92 NSCLC
[26] = test system: SK-OV-3 ovarian
[27] = test system: NCI-H522 lung
[28] = test system: SF-268 CNS
[29] = test system: SNB-75 CNS
[30] = test system: MDA-N
[31] = test system: SF-295 CNS
[32] = test system: SNB-19 CNS
[33] = test system: UACC-62 melanoma
[34] = test system: MDA-MB-231 breast
[35] = test system: M14 melanoma
[36] = test system: NCI/ADR-RES ovarian
[37] = test system: K-562 leukemia
[38] = test system: SN12C renal
[39] = test system: HS 578T breast
[40] = test system: UACC-257 melanoma
[41] = test system: OVCAR-5 ovarian
[42] = test system: SW-620 colon
[43] = test system: NCI-H23 lung
[44] = test system: A549 NSCLC
[45] = test system: T-47D breast
[46] = test system: ACHN renal
[47] = test system: IGROV1 ovarian
[48] = test system: EKVX NSCLC
[49] = test system: NCI-H460 lung
[50] = test system: TK-10 renal
[51] = test system: COLO 205 colon
[52] = test system: BT-549 breast
[53] = test system: RXF 393 renal
[54] = test system: MALME-3M melanoma
[55] = test system: PC-3 prostate
[56] = test system: SR leukemia
[57] = test system: OVCAR-4 ovarian
[58] = test system: SF-539 CNS
[59] = test system: DU-145 prostate

NC(=O)c1cc2ccc(O)cc2o/c1=N/NC(=O)c1ccccc1
TGI [1]: > 100 µM
TGI [2]: > 100 µM
TGI [3]: > 100 µM
TGI [4]: > 100 µM
TGI [5]: > 100 µM
TGI [6]: > 100 µM
TGI [7]: > 100 µM
TGI [8]: > 100 µM
TGI [9]: 91.8 µM
TGI [10]: > 100 µM
TGI [11]: > 100 µM
TGI [12]: > 100 µM
TGI [13]: > 100 µM
TGI [14]: > 100 µM
TGI [15]: > 100 µM
TGI [16]: > 100 µM
TGI [17]: > 100 µM
TGI [18]: > 100 µM
TGI [19]: > 100 µM
TGI [20]: > 100 µM
TGI [21]: > 100 µM
TGI [22]: > 100 µM
TGI [23]: > 100 µM
TGI [24]: > 100 µM
TGI [25]: > 100 µM
TGI [26]: > 100 µM
TGI [27]: > 100 µM
TGI [28]: > 100 µM
TGI [29]: > 100 µM
TGI [30]: > 100 µM
TGI [31]: > 100 µM
TGI [32]: > 100 µM
TGI [33]: > 100 µM
TGI [34]: > 100 µM
TGI [35]: > 100 µM
TGI [36]: > 100 µM
TGI [37]: > 100 µM
TGI [38]: > 100 µM
TGI [39]: > 100 µM
TGI [40]: > 100 µM
TGI [41]: > 100 µM
TGI [42]: > 100 µM
TGI [43]: > 100 µM
TGI [44]: > 100 µM
TGI [45]: 91.4 µM
TGI [46]: > 100 µM
TGI [47]: > 100 µM
TGI [48]: > 100 µM
TGI [49]: > 100 µM
TGI [50]: > 100 µM
TGI [51]: > 100 µM
TGI [52]: > 100 µM
TGI [53]: > 100 µM
TGI [54]: > 100 µM
TGI [55]: > 100 µM
TGI [56]: > 100 µM
TGI [57]: > 100 µM

COc1cccc2c1CCc1c(-c3ccc(F)cc3)cc(-c3ccc4ccccc4n3)nc1-2
TGI [1]: > 100 µM
TGI [2]: > 100 µM
TGI [3]: > 100 µM
TGI [4]: > 100 µM
TGI [5]: > 100 µM
TGI [6]: > 100 µM
TGI [7]: > 100 µM
TGI [8]: > 100 µM
TGI [9]: > 100 µM
TGI [11]: > 100 µM
TGI [12]: > 100 µM
TGI [13]: > 100 µM
TGI [15]: > 100 µM
TGI [16]: > 100 µM
TGI [17]: > 100 µM
TGI [18]: > 100 µM
TGI [19]: > 100 µM
TGI [20]: > 100 µM
TGI [58]: > 100 µM
TGI [22]: > 100 µM
TGI [23]: > 100 µM
TGI [24]: > 100 µM
TGI [25]: > 100 µM
TGI [26]: > 100 µM
TGI [27]: > 100 µM
TGI [28]: > 100 µM
TGI [29]: > 100 µM
TGI [30]: > 100 µM
TGI [31]: > 100 µM
TGI [32]: > 100 µM
TGI [33]: > 100 µM
TGI [34]: > 100 µM
TGI [35]: > 100 µM
TGI [36]: > 100 µM
TGI [37]: > 100 µM
TGI [39]: > 100 µM
TGI [40]: > 100 µM
TGI [41]: > 100 µM
TGI [42]: > 100 µM
TGI [43]: > 100 µM
TGI [44]: > 100 µM
TGI [45]: > 100 µM
TGI [46]: > 100 µM
TGI [47]: > 100 µM
TGI [48]: > 100 µM
TGI [49]: > 100 µM
TGI [50]: > 100 µM
TGI [51]: > 100 µM
TGI [52]: > 100 µM
TGI [53]: > 100 µM
TGI [54]: > 100 µM
TGI [55]: > 100 µM
TGI [56]: > 100 µM
TGI [57]: > 100 µM

CCOP(=O)(OCC)/C(=C/NC(=S)c1ccncc1)C(=O)OC
TGI [1]: > 100 µM
TGI [2]: > 100 µM
TGI [3]: > 100 µM
TGI [4]: > 100 µM
TGI [5]: > 100 µM
TGI [6]: > 100 µM
TGI [7]: > 100 µM
TGI [8]: > 100 µM
TGI [9]: > 100 µM
TGI [59]: > 100 µM
TGI [11]: > 100 µM
TGI [12]: > 100 µM
TGI [13]: > 100 µM
TGI [14]: > 100 µM
TGI [16]: > 100 µM
TGI [17]: 64.8 µM
TGI [18]: > 100 µM
TGI [19]: > 100 µM
TGI [20]: > 100 µM
TGI [58]: > 100 µM
TGI [21]: > 100 µM
TGI [22]: > 100 µM
TGI [23]: > 100 µM
TGI [24]: > 100 µM
TGI [25]: > 100 µM
TGI [26]: > 100 µM
TGI [27]: > 100 µM
TGI [28]: > 100 µM
TGI [30]: > 100 µM
TGI [31]: > 100 µM
TGI [32]: > 100 µM
TGI [33]: > 100 µM
TGI [34]: > 100 µM
TGI [35]: > 100 µM
TGI [36]: > 100 µM
TGI [37]: > 100 µM
TGI [38]: > 100 µM
TGI [39]: > 100 µM
TGI [40]: > 100 µM
TGI [41]: > 100 µM
TGI [42]: > 100 µM
TGI [43]: > 100 µM
TGI [44]: > 100 µM
TGI [45]: > 100 µM
TGI [46]: > 100 µM
TGI [47]: > 100 µM
TGI [48]: > 100 µM
TGI [49]: > 100 µM
TGI [50]: > 100 µM
TGI [51]: > 100 µM
TGI [52]: > 100 µM
TGI [53]: > 100 µM
TGI [55]: > 100 µM
TGI [56]: > 100 µM
TGI [57]: > 100 µM

COc1cc(/C=C2\N=C(c3ccccc3)N(c3nc4cc(C)c(C)cc4s3)C2=O)ccc1O
TGI [1]: 52.1 µM
TGI [2]: > 100 µM
TGI [3]: 65.3 µM
TGI [4]: > 100 µM
TGI [5]: > 100 µM
TGI [7]: > 100 µM
TGI [8]: 61.8 µM
TGI [9]: > 100 µM
TGI [59]: > 100 µM
TGI [10]: > 100 µM
TGI [11]: > 100 µM
TGI [12]: 39.1 µM
TGI [13]: > 100 µM
TGI [14]: 69.9 µM
TGI [16]: > 100 µM
TGI [17]: 39.1 µM
TGI [18]: 99.1 µM
TGI [19]: > 100 µM
TGI [20]: > 100 µM
TGI [58]: 60.9 µM
TGI [21]: 43.9 µM
TGI [22]: > 100 µM
TGI [23]: > 100 µM
TGI [24]: > 100 µM
TGI [25]: > 100 µM
TGI [26]: > 100 µM
TGI [28]: > 100 µM
TGI [29]: > 100 µM
TGI [30]: 37.7 µM
TGI [31]: > 100 µM
TGI [32]: > 100 µM
TGI [33]: > 100 µM
TGI [34]: > 100 µM
TGI [35]: > 100 µM
TGI [36]: > 100 µM
TGI [37]: > 100 µM
TGI [38]: 78.9 µM
TGI [39]: > 100 µM
TGI [40]: > 100 µM
TGI [41]: > 100 µM
TGI [42]: > 100 µM
TGI [44]: > 100 µM
TGI [45]: > 100 µM
TGI [46]: > 100 µM
TGI [47]: > 100 µM
TGI [48]: > 100 µM
TGI [49]: > 100 µM
TGI [50]: > 100 µM
TGI [51]: > 100 µM
TGI [52]: > 100 µM
TGI [53]: 82.2 µM
TGI [55]: > 100 µM
TGI [56]: 57.8 µM
TGI [57]: > 100 µM
